# Measured values: US10251395B2, “Substituted furano-/thienocycloalkylamino-2-pyrimidine derivatives and use thereof for controlling undesired plant growth” (Bayer CropScience Aktiengesellschaft, priority 2015, dated 2019)
# Tests used:
# Assay type in all cases: in vivo
# [1] = test system: Lolium multiflorum; assay: Pre-emergence herbicidal effect; settings: Dosage 320 g/ha, scored visually after 3 weeks
# Outline: (§1)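 Pre-em soil-surface spray; sandy loam, seeds covered with soil. WP/EC, aq. suspension/emulsion, 600–800 L/ha, +0.2% wetting agent. GH 3 wk; visual % activity vs untreated (100% = dead).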
# [2] = test system: Veronica persica; assay: Pre-emergence herbicidal effect; settings: scored visually after 3 weeks
# Outline: as §1
# [3] = test system: Avena fatua; assay: Pre-emergence herbicidal effect; settings: Dosage 320 g/ha, scored visually after 3 weeks
# Outline: as §1
# [4] = test system: Alopecurus myosuroides; assay: Pre-emergence herbicidal effect; settings: scored visually after 3 weeks
# Outline: as §1
# [5] = test system: Ipomoea purpurea; assay: Pre-emergence herbicidal effect; settings: Dosage 320 g/ha, scored visually after 3 weeks
# Outline: as §1
# [6] = test system: Polygonum convolvulus; assay: Pre-emergence herbicidal effect; settings: scored visually after 3 weeks
# Outline: as §1
# [7] = test system: Setaria viridis; assay: Pre-emergence herbicidal effect; settings: scored visually after 3 weeks
# Outline: as §1
# [8] = test system: Viola tricolor; assay: Pre-emergence herbicidal effect; settings: scored visually after 3 weeks
# Outline: as §1
# [9] = test system: Matricaria inodora; assay: Pre-emergence herbicidal effect; settings: scored visually after 3 weeks
# Outline: as §1
# [10] = test system: Echinochloa crus-galli; assay: Pre-emergence herbicidal effect; settings: scored visually after 3 weeks
# Outline: as §1
# [11] = test system: Amaranthus retroflexus; assay: Pre-emergence herbicidal effect; settings: scored visually after 3 weeks
# Outline: as §1
# [12] = test system: Stellaria media; assay: Pre-emergence herbicidal effect; settings: scored visually after 3 weeks
# Outline: as §1
# [13] = test system: Lolium multiflorum; assay: Post-emergence herbicidal effect; settings: 320 g/ha, assessed visually after about 3 weeks vs untreated controls
# Outline: (§2)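 Seedlings at the one-leaf stage, about 2 to 3 weeks old, are sprayed on their foliage with compound suspended or emulsified in water containing 0.2% wetting agent. After roughly 3 weeks in the greenhouse, injury is estimated visually on a 0 to 100% scale.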
# [14] = test system: Veronica persica; assay: Post-emergence herbicidal effect; settings: assessed visually after about 3 weeks vs untreated controls
# Outline: as §2
# [15] = test system: Ipomoea purpurea; assay: Post-emergence herbicidal effect; settings: assessed visually after about 3 weeks vs untreated controls
# Outline: as §2
# [16] = test system: Polygonum convolvulus; assay: Post-emergence herbicidal effect; settings: assessed visually after about 3 weeks vs untreated controls
# Outline: as §2
# [17] = test system: Viola tricolor; assay: Post-emergence herbicidal effect; settings: assessed visually after about 3 weeks vs untreated controls
# Outline: as §2
# [18] = test system: Matricaria inodora; assay: Post-emergence herbicidal effect; settings: assessed visually after about 3 weeks vs untreated controls
# Outline: as §2
# [19] = test system: Echinochloa crus-galli; assay: Post-emergence herbicidal effect; settings: assessed visually after about 3 weeks vs untreated controls
# Outline: as §2
# [20] = test system: Amaranthus retroflexus; assay: Post-emergence herbicidal effect; settings: assessed visually after about 3 weeks vs untreated controls
# Outline: as §2
# [21] = test system: Stellaria media; assay: Post-emergence herbicidal effect; settings: assessed visually after about 3 weeks vs untreated controls
# Outline: as §2
# [22] = test system: Abutilon theophrasti; assay: Pre-emergence herbicidal effect; settings: scored visually after 3 weeks
# Outline: as §1
# [23] = test system: Alopecurus myosuroides; assay: Post-emergence herbicidal effect; settings: 320 g/ha, assessed visually after about 3 weeks vs untreated controls
# Outline: as §2
# [24] = test system: Setaria viridis; assay: Post-emergence herbicidal effect; settings: assessed visually after about 3 weeks vs untreated controls
# Outline: as §2
# [25] = test system: Abutilon theophrasti; assay: Post-emergence herbicidal effect; settings: assessed visually after about 3 weeks vs untreated controls
# Outline: as §2
smiles,measurement,setting,value
CS(=O)(=O)c1cnc(NC2CCCc3sccc32)nc1N (racemic) [compound 23],LOLMU pre-emergence efficacy (herbicidal activity),[1],100%
same,VERPE pre-emergence efficacy (herbicidal activity),[2]; Dosage 80 g/ha,100%
same,VERPE pre-emergence efficacy (herbicidal activity),[2]; Dosage 320 g/ha,100%
same,AVEFA pre-emergence efficacy (herbicidal activity),[3],90%
same,ALOMY pre-emergence efficacy (herbicidal activity),[4]; Dosage 320 g/ha,80%
same,PHBPU pre-emergence efficacy (herbicidal activity),[5],100%
same,POLCO pre-emergence efficacy (herbicidal activity),[6]; Dosage 80 g/ha,100%
same,POLCO pre-emergence efficacy (herbicidal activity),[6]; Dosage 320 g/ha,100%
same,SETVI pre-emergence efficacy (herbicidal activity),[7]; Dosage 320 g/ha,100%
same,VIOTR pre-emergence efficacy (herbicidal activity),[8]; Dosage 80 g/ha,100%
same,VIOTR pre-emergence efficacy (herbicidal activity),[8]; Dosage 320 g/ha,100%
same,MATIN pre-emergence efficacy (herbicidal activity),[9]; Dosage 80 g/ha,100%
same,MATIN pre-emergence efficacy (herbicidal activity),[9]; Dosage 320 g/ha,100%
same,ECHCG pre-emergence efficacy (herbicidal activity),[10]; Dosage 320 g/ha,100%
same,AMARE pre-emergence efficacy (herbicidal activity),[11]; Dosage 80 g/ha,100%
same,AMARE pre-emergence efficacy (herbicidal activity),[11]; Dosage 320 g/ha,100%
same,STEME pre-emergence efficacy (herbicidal activity),[12]; Dosage 80 g/ha,100%
same,STEME pre-emergence efficacy (herbicidal activity),[12]; Dosage 320 g/ha,100%
same,post-emergence efficacy LOLMU,[13],80%
same,post-emergence efficacy VERPE,[14]; 80 g/ha,90%
same,post-emergence efficacy VERPE,[14]; 320 g/ha,90%
same,post-emergence efficacy PHBPU,[15]; 80 g/ha,80%
same,post-emergence efficacy PHBPU,[15]; 320 g/ha,80%
same,post-emergence efficacy POLCO,[16]; 320 g/ha,80%
same,post-emergence efficacy VIOTR,[17]; 80 g/ha,80%
same,post-emergence efficacy VIOTR,[17]; 320 g/ha,100%
same,post-emergence efficacy MATIN,[18]; 80 g/ha,80%
same,post-emergence efficacy MATIN,[18]; 320 g/ha,100%
same,post-emergence efficacy ECHCG,[19]; 320 g/ha,80%
same,post-emergence efficacy AMARE,[20]; 80 g/ha,80%
same,post-emergence efficacy AMARE,[20]; 320 g/ha,80%
same,post-emergence efficacy STEME,[21]; 320 g/ha,90%
Cc1cc2c(s1)CCCC2Nc1ncc(C(F)(F)F)c(N)n1 (racemic) [compound 61],VERPE pre-emergence efficacy (herbicidal activity),[2]; Dosage 80 g/ha,100%
same,VERPE pre-emergence efficacy (herbicidal activity),[2]; Dosage 320 g/ha,100%
same,AVEFA pre-emergence efficacy (herbicidal activity),[3],80%
same,ALOMY pre-emergence efficacy (herbicidal activity),[4]; Dosage 80 g/ha,80%
same,ALOMY pre-emergence efficacy (herbicidal activity),[4]; Dosage 320 g/ha,100%
same,PHBPU pre-emergence efficacy (herbicidal activity),[5],90%
same,POLCO pre-emergence efficacy (herbicidal activity),[6]; Dosage 80 g/ha,90%
same,POLCO pre-emergence efficacy (herbicidal activity),[6]; Dosage 320 g/ha,90%
same,SETVI pre-emergence efficacy (herbicidal activity),[7]; Dosage 80 g/ha,100%
same,SETVI pre-emergence efficacy (herbicidal activity),[7]; Dosage 320 g/ha,100%
same,VIOTR pre-emergence efficacy (herbicidal activity),[8]; Dosage 80 g/ha,80%
same,VIOTR pre-emergence efficacy (herbicidal activity),[8]; Dosage 320 g/ha,100%
same,MATIN pre-emergence efficacy (herbicidal activity),[9]; Dosage 80 g/ha,100%
same,MATIN pre-emergence efficacy (herbicidal activity),[9]; Dosage 320 g/ha,100%
same,ECHCG pre-emergence efficacy (herbicidal activity),[10]; Dosage 80 g/ha,90%
same,ECHCG pre-emergence efficacy (herbicidal activity),[10]; Dosage 320 g/ha,90%
same,ABUTH pre-emergence efficacy (herbicidal activity),[22]; Dosage 80 g/ha,30%
same,ABUTH pre-emergence efficacy (herbicidal activity),[22]; Dosage 320 g/ha,100%
same,AMARE pre-emergence efficacy (herbicidal activity),[11]; Dosage 80 g/ha,100%
same,AMARE pre-emergence efficacy (herbicidal activity),[11]; Dosage 320 g/ha,100%
same,STEME pre-emergence efficacy (herbicidal activity),[12]; Dosage 80 g/ha,90%
same,STEME pre-emergence efficacy (herbicidal activity),[12]; Dosage 320 g/ha,100%
same,post-emergence efficacy LOLMU,[13],90%
same,post-emergence efficacy VERPE,[14]; 80 g/ha,100%
same,post-emergence efficacy VERPE,[14]; 320 g/ha,100%
same,post-emergence efficacy ALOMY,[23],100%
same,post-emergence efficacy PHBPU,[15]; 80 g/ha,90%
same,post-emergence efficacy PHBPU,[15]; 320 g/ha,100%
same,post-emergence efficacy POLCO,[16]; 80 g/ha,80%
same,post-emergence efficacy POLCO,[16]; 320 g/ha,90%
same,post-emergence efficacy SETVI,[24]; 80 g/ha,80%
same,post-emergence efficacy SETVI,[24]; 320 g/ha,90%
same,post-emergence efficacy VIOTR,[17]; 80 g/ha,90%
same,post-emergence efficacy VIOTR,[17]; 320 g/ha,90%
same,post-emergence efficacy MATIN,[18]; 320 g/ha,100%
same,post-emergence efficacy ECHCG,[19]; 80 g/ha,100%
same,post-emergence efficacy ECHCG,[19]; 320 g/ha,100%
same,post-emergence efficacy ABUTH,[25]; 80 g/ha,90%
same,post-emergence efficacy ABUTH,[25]; 320 g/ha,90%
same,post-emergence efficacy AMARE,[20]; 80 g/ha,90%
same,post-emergence efficacy AMARE,[20]; 320 g/ha,90%
same,post-emergence efficacy STEME,[21]; 80 g/ha,100%
same,post-emergence efficacy STEME,[21]; 320 g/ha,100%
